Measured values taken from US4788304A, “Phospholipase A2 inhibitors” (American Home Products Corporation, priority 1987, dated 1988).

Assays:
[1] = target: T1, human platelet PLA2 (Homo sapiens, UniProt P14555); assay: Inhibition of cell free human platelet PLA2 (hydrolysis of [3H]-AA labelled E. coli phospholipids); type: biochemical; conditions: 30 min
T1 construct: The PLA2 enriched supernatant fluid is removed and the amount of protein is determined by the Lowry method; from tissue; host or cells: expired human platelets from the blood bank (acid extract, not purified)
T1 sequence (P14555 21-144): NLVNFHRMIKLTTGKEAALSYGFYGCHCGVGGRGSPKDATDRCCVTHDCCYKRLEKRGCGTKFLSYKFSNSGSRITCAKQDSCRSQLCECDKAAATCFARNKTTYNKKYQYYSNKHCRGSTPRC
Description: The ability of the compounds in the scope of the invention to inhibit the activity of cell free human platelet PLA2 enzyme is measured in the following in vitro assay.
E. coli, cultured to exponential growth, are sedimented for 15 minutes at 10,000 g and resuspended in sterile isotonic saline (1-3 ml). 10-25 μCi uniformly labeled [^3 H]-arachidonic acid (AA) is added to a sterile flask, evaporated by N2 and resolubilized with 0.3 ml 20% fatty acid-free bovine serum albumen (BSA). 75-100 ml of nutrient broth and 1 ml E. coli are then added to each flask and incubated for 2-3 hours at 37° C. [^3 H]-AA labelled E. coli are then sedimented, suspended in saline and added to fresh nutrient broth and incubated for 1.5 hours at 37° C. to complete [^3 H]-AA incorporation into the phospholipids. After overnight refrigeration of cultures, E. coli are again sedimented, suspended in saline and autoclaved for 15 minutes at 120° C. E. coli cultures are washed twice with saline (first wash contains 1 % BSA) and resuspended in saline. Non-labelled E. coli cultures are also prepared in the same manner. Cell number is determined by measuring the optical density at […] (3×10 cell/ml=1 O.D.). The amount of radioactivity associated with cells is determined by counting a defined volume of cell suspension. The specific activity is subsequently adjusted by adding non-labelled E. coli to yield 2-4×10 cpm per 1×10^10 E. coli.
Expired human platelets from the blood bank are centrifuged for 15 minutes at 200 g to obtain a platelet rich fraction and to remove the red blood cells. Platelets are sedimented for 15 minutes at 2500 g and the plasma is removed before adding cold 0.18N H2 SO4 (4 ml/unit). Platelets are homogenized, incubated for 1 hour at 4° C., homogenized again and centrifuged for 15 minutes at 10,000 g. The PLA2 enriched supernatant fluid is removed and the amount of protein is determined by the Lowry method. The preparation is divided into various portions and stored at -20° C.
The assay measures the hydrolysis of E. coli membrane phospholipids and the release of free [^3 H]-AA from the C-2 position of phospholipids by human platelet PLA2. To ice cold 15×100 mm test tubes, the following additions are made; 2.5×10^8 E. coli (equivalent to 5 nmol phospholipid), 5 mM Ca++, 100 mM Tris buffer (pH=7.4), 100 μg platelet extract (or an amount to produce 20-30% hydrolysis), drug or vehicle. Incubation are carried out at 37° C. in a shaking water bath for 30 minutes. The reaction is terminated by the addition of 2 volumes of tetrahydrofuran (THF) and the mixture is vortexed. Hydrolyzed [^3 H]-AA is separated from unhydrolyzed phospholipid by solid phase extraction using Bond elute NH2 columns (Analytichem Intermat.). Columns are conditioned with 0.5 ml THF followed by 0.5 ml THF:H2 O (2.0:0.1 ml v/v). Samples are loaded onto columns and hydrolyzed [^3 H]-AA is eluted with 1 ml THF:glacial acetic acid (98.0:2.0 ml v/v). The elutant is transferred to vials, 10 ml Optifluor is added and the radioactivity is determined by liquid scintillation counting.
Treatments are corrected for non-enzymatic hydrolysis by subtracting the dpms in treatments containing no enzyme. Mean [^3 H]-AA dpm is determined and a percent inhibition relative to vehicle treated samples is calculated.
The percent hydrolysis is calculated by the following equation: [formula]

[2] = test system: synthesis of LTB4 by rat glycogen-elicited polymorphonuclear leukocytes (PMN); assay: Inhibition of LTB4 synthesis by rat glycogen-elicited polymorphonuclear leukocytes (PMN); type: cell-based, rat (female Wistar); conditions: Leukocyte, A23187-stimulated rat PMN

inhibition at 50 µM ([1]; at 50 μM, pH 7.4, 37° C.): 83.2%
IC50 ([1]; cell free human platelet PLA2, pH 7.4, 37° C., read-out: IC50 (PLA2)): 10.7 µM
Compound: COC(=O)C1(C(=O)CCCCOc2ccc(Cl)cc2)CO1 (stereo not drawn) [Example 6A, 2-[5-(4-Chlorophenoxy)-1-oxopentyl]-2-oxiranecarboxylic acid methyl ester]
inhibition at 10 µM [2]: 11%
